Experiments:
[1] = tested on: common morningglory (Pharbitis album; PHAAL); assay: Greenhouse herbicidal efficacy test, tank mix of herbicide and adjuvant, post-emergence spray; assay type: in vivo; conditions: Tritosulfuron (BAS 635 H) 0.250 kg/ha as printed in table + adjuvant 0.125 kg/ha (Comparison 0.250 kg/ha), 0% no damage, 100% complete damage
Procedure: (§1) The alkoxylates were applied by the tank mix method together with Basagran (480 g/l bentazone) or BAS 635 H (71.4% by weight of tritosulfuron). […] The herbicidal effect was assessed in a greenhouse experiment. The test plant used was white goosefoot (Chenepodium album; CHEAL) and the common morningglory (Pharbitis album; PHAAL).
(§2) The plants were sown directly or pricked out at a rate of 3-15 plants per pot. When the active ingredient was applied, the plants were 5-16 cm in height. The test containers used were plastic pots containing loamy sand and approximately 3% humus as substrate. The surfactants were applied by the tank mix method by spray application post-emergence in an automated spray cabinet with a water application rate of 400 liters per hectare. The experimental period was 6 days to 4 weeks. Evaluation was carried out using a scale of from 0% to 100%. 0% means no damage, 100% means complete damage.

[2] = tested on: white goosefoot (Chenepodium album; CHEAL); assay: as above; assay type: in vivo; conditions: 0% no damage, 100% complete damage
Procedure: as §1, §2

Question: How did the “PHAAL herbicidal effect (damage, scale 0% to 100%)” value [1] turn out when `COc1nc(NC(=O)NS(=O)(=O)c2ccccc2C(F)(F)F)nc(C(F)(F)F)n1` [Tritosulfuron, tritosulfuron] was run?
Answer: 48%

Question: And the “CHEAL herbicidal effect (damage, scale 0% to 100%)” value ([2]; Tritosulfuron (BAS 635 H) 0.250 kg/ha as printed in table + adjuvant 0.125 kg/ha (Comparison 0.250 kg/ha))?
Answer: 35%

Question: How did the “CHEAL herbicidal effect (damage, scale 0% to 100%)” value ([2]; Bentazone (Basagran) 0.250 kg/ha + adjuvant 0.125 kg/ha (Comparison 0.250 kg/ha), 400 l/ha water) turn out when `CC(C)N1C(=O)c2ccccc2NS1(=O)=O` [Bentazone, bentazone] was run?
Answer: 23%

From patent publication US8877681B2, “Use of specific alcohol alkoxylates as an adjuvant for agrotechnical applications” (BASF SE, priority 2002, dated 2014)
